Among the data in BindingDB's records for doi:10.1016/s0960-894x(98)00019-5 (Abbott Laboratories, 1999) are IC50 values, retold here.

Each structure is given as a SMILES string. pIC50: −log10 of the molar value.

This assay can be described thus: Inhibitory concentration to antagonise cation efflux in nAChR subtype human alpha3betaX, expressed in IMR-32 cells.

As usually defined, the pIC50 is −log10 of the IC50, conventionally taken in molar units. In the case of `CCCc1cncc(OC[C@@H]2CCCN2C)c1` [3-((S)-1-Methyl-pyrrolidin-2-ylmethoxy)-5-propyl-pyridine], the pIC50 was 5.49. Under `CCCCc1cncc(OC[C@@H]2CCCN2C)c1` [3-Butyl-5-((S)-1-methyl-pyrrolidin-2-ylmethoxy)-pyridine] stands 5.30.
